Laboratory results reported in patent US9718782B2, “TrkA kinase inhibitors, compositions and methods thereof” (MERCK SHARP & DOHME CORP, priority 2013, dated 2017).

biological target: T1, TrkA receptor (Homo sapiens, UniProt P04629); test: DiscoverX PathHunter TrkA functional assay (NGF-stimulated U2OS cells); type: cell-based; conditions: U2OS cells expressing TrkA-Prolink fusion and Shc1-EA; compound 1 hour, then EC80 NGF 3 hours; luminescence
T1 construct: host or cells: U2OS (PathHunter, 'TrkA p75' cells)
Experimental: TrkA functional activity was measured using a DiscoverX PathHunter assay. In this assay, U2OS cells are express TrkA receptor as a fusion with the weakly complementing fragment of B-galactosidase, which DiscoverX calls “Prolink (PK)”; additionally, Shcl is fused with a larger fragment, which is called “Enzyme Acceptor (EA)”. Activation of the TrkA receptor, upon NGF addition, results in the kinase domain being phosphorylated, resulting in subsequent recruitment of Shcl-EA protein. That recruitment results in an active B-galactosidase enzyme that is detected by addition of a chemiluminescent substrate.
All reagents were purchased from DiscoverX, except for the receptor agonists (NGF, BDNF, NT3) which were purchased from Peprotech. Cells were expanded and frozen into cryovials (TrkA p75 @passage 13, 1.5×10^7 cells/vial; TrkC p75 @passage 11, 1.5×10^7 cells/vial in InVitrogen Recovery Cell Freezing media), and stored in the vapor phase of liquid nitrogen, and thawed immediately before use. Thawed cells were added to a 384-well plate (BD Falcon 384-well white/clear, TC surface 120 uL assay plates (353963), 20 uL of 0.375e6 cells/mL=>7500 cells/well), and allowed to incubate overnight. Compound (10 mM starting dose: 202.5 nL compound yielding 0.81% DMSO final in total assay volume and starting doses 81 uM) was added the following morning and allowed to incubate on cells for 1 hour. Then, 5 uL EC80 of agonist (NGF for TrkA; BDNF for TrkB; NT3 for TrkC) was added and allowed to incubate for 3 hours at room temperature. DiscoverX PathHunter detection reagent is added (12 uL to plate and components diluted in parts as per kit instructions) and the plate is further incubated for 1 hour in the dark. The plate is read via luminescence on the Perkin Elmer Envision.

T1 sequence (P04629 33-796): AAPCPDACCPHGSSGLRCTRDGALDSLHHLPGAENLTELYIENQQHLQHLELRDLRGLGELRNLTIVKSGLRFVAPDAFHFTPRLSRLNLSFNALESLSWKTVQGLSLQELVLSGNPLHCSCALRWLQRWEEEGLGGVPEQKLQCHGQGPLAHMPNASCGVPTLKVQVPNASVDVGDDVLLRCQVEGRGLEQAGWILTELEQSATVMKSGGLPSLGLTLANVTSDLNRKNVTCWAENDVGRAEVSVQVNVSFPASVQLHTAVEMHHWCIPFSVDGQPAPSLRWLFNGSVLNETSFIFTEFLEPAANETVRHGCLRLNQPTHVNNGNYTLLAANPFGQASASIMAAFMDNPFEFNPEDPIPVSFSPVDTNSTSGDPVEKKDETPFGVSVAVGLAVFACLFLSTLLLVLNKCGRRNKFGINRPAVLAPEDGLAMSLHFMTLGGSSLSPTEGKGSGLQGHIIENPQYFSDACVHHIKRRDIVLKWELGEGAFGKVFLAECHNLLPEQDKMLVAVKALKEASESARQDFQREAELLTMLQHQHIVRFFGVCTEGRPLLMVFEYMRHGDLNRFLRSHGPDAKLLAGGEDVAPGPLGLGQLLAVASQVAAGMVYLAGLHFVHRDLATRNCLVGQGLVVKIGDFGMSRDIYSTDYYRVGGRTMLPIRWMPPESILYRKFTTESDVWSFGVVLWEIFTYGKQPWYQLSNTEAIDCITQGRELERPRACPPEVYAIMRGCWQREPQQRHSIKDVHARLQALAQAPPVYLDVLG

**Q.** With `Cc1ccc(NC(=O)NC2c3ccccc3-c3ccccc32)c(-c2ccccc2)n1` [Compound 1, 1-(9H-fluoren-9-yl)-3-(6-methyl-2-phenylpyridin-3-yl)urea] as the compound, how does the IC50 read?
**A.** 0.069 µM

**Q.** `Cc1nc(-c2ccccc2)c(NC(=O)NC2c3ccccc3-c3ccccc32)s1` [Compound 2, 1-(9H-fluoren-9-yl)-3-(2-methyl-4-phenyl-1,3-thiazol-5-yl)urea] was tested. Which IC50 did it give?
**A.** 0.14 µM

**Q.** How did the IC50 turn out when `Cc1ncc(NC(=O)NC2c3ccccc3Oc3ccccc32)c(-c2ccccc2)n1` [Compound 3, 1-(2-methyl-4-phenylpyrimidin-5-yl)-3-(9H-xanthen-9-yl)urea] was run?
**A.** 0.061 µM

**Q.** With `Cc1ncc(NC(=O)NC2c3ccccc3-c3ccccc32)c(-c2ccccc2)n1` [Compound 4, 1-(9H-fluoren-9-yl)-3-(2-methyl-4-phenylpyrimidin-5-yl)urea] as the compound, how does the IC50 read?
**A.** 0.082 µM

**Q.** For `Cc1ccc(NC(=O)NC2c3ccccc3-c3ccccc32)c(-c2ccc(F)cc2)n1` [Compound 5, 1-(9H-fluoren-9-yl)-3-[2-(4-fluorophenyl)-6-methylpyridin-3-yl]urea], which IC50 is on record?
**A.** 0.23 µM

**Q.** Which IC50 does the source give for `O=C(Nc1c(-c2ccccc2)nc2sccn12)NC1c2ccccc2-c2ccccc21` [Compound 6, 1-(9H-fluoren-9-yl)-3-(6-phenylimidazo [2,1-b][1,3]thiazol-5-yl)urea] here?
**A.** 0.035 µM

**Q.** Which IC50 does the source give for `Cc1cc(NC(=O)NC2c3ccccc3-c3ccccc32)n(-c2ccccc2)n1` [Compound 7, 1-(9H-fluoren-9-yl)-3-(3-methyl-1-phenyl-1H-pyrazol-5-yl)urea] here?
**A.** 0.044 µM

**Q.** With `Cc1onc(-c2ccccc2)c1NC(=O)NC1c2ccccc2-c2ccccc21` [Compound 8, 1-(9H-fluoren-9-yl)-3-(5-methyl-3-phenylisoxazol-4-yl)urea] as the compound, how does the IC50 read?
**A.** 0.19 µM

**Q.** For `Cn1ncc(-c2ccccc2)c1NC(=O)NC1c2ccccc2-c2ccccc21` [Compound 9, 1-(9H-fluoren-9-yl)-3-(1-methyl-4-phenyl-1H-pyrazol-5-yl)urea], which IC50 is on record?
**A.** 0.53 µM

**Q.** For `Cc1nn(C)c(NC(=O)NC2c3ccccc3-c3ccccc32)c1-c1ccccc1` [Compound 10, 1-(1,3-dimethyl-4-phenyl-1H-pyrazol-5-yl)-3-(9H-fluoren-9-yl)urea], which IC50 is on record?
**A.** 0.21 µM

**Q.** How did the IC50 turn out when `O=C(Nc1cccnc1-c1ccccc1)NC1c2ccccc2-c2ccccc21` [Compound 11, 1-(9H-fluoren-9-yl)-3-(2-phenylpyridin-3-yl)urea] was run?
**A.** 0.027 µM

**Q.** For `O=C(Nc1cnccc1-c1ccccc1)NC1c2ccccc2-c2ccccc21` [Compound 12, 1-(9H-fluoren-9-yl)-3-(4-phenylpyridin-3-yl)urea], which IC50 is on record?
**A.** 0.28 µM

**Q.** With `Cc1ccc(NC(=O)NC2c3ccccc3-c3ccccc32)cn1` [Compound 13, 1-(9H-fluoren-9-yl)-3-(6-methylpyridin-3-yl)urea] as the compound, how does the IC50 read?
**A.** 2.5 µM

**Q.** Which IC50 does the source give for `O=C(Nc1ccnn1-c1ccccc1)NC1c2ccccc2-c2ccccc21` [Compound 14, 1-(9H-fluoren-9-yl)-3-(1-phenyl-1H-pyrazol-5-yl)urea] here?
**A.** 0.12 µM

**Q.** With `O=C(Nc1cc(-c2ccccc2)nn1-c1ccccc1)NC1c2ccccc2-c2ccccc21` [Compound 15, 1-(1,3-diphenyl-1H-pyrazol-5-yl)-3-(9H-fluoren-9-yl)urea] as the compound, how does the IC50 read?
**A.** 3 µM

**Q.** How did the IC50 turn out when `CC(C)(C)c1cc(NC(=O)NC2c3ccccc3-c3ccccc32)n(-c2ccccc2)n1` [Compound 16, 1-(3-tert-butyl-1-phenyl-1H-pyrazol-5-yl)-3-(9H-fluoren-9-yl)urea] was run?
**A.** 0.069 µM

**Q.** How did the IC50 turn out when `CC(C)Cc1cc(NC(=O)NC2c3ccccc3-c3ccccc32)n(-c2ccccc2)n1` [Compound 17, 1-(9H-fluoren-9-yl)-3-[3-(2-methylpropyl)-1-phenyl-1H-pyrazol-5-yl]urea] was run?
**A.** 0.2 µM

**Q.** How did the IC50 turn out when `Cc1ccccc1-n1nc(C(C)(C)C)cc1NC(=O)NC1c2ccccc2-c2ccccc21` [Compound 18, 1-[3-tert-butyl-1-(2-methylphenyl)-1H-pyrazol-5-yl]-3-(9H-fluoren-9-yl)urea] was run?
**A.** 0.85 µM

**Q.** `O=C(Nc1cc(C2CC2)nn1-c1ccccc1)NC1c2ccccc2-c2ccccc21` [Compound 19, 1-(3-cyclopropyl-1-phenyl-1H-pyrazol-5-yl)-3-(9H-fluoren-9-yl)urea] was tested. Which IC50 did it give?
**A.** 0.069 µM
